Patent publication US4232148A, “6-Deoxyneamines” (The Upjohn Company, priority 1979, dated 1980)
≈ marks a conversion by molar mass, not a printed value. Where two headings read alike, the source gives them in different places.

System: P. rettgeri UC 339
Experiment: standard microplate test in BHI Agar, MIC
Type: cell-based
Settings: Providencia rettgeri, UC339, 20 h
Description: The compounds VII, XI, XVβ, XVα and XVI were tested in a standard microplate test in BHI (Brain Heart Infusion) Agar at a concentration of 1 mg./ml. and dilutions thereof at 37° incubation temperature. The end points are read at 20 hours. BHI Agar is supplied by Difco Laboratories, Detroit, Mich., U.S.A. and has the following compositions:
Calf brains, infusion from: 200 gm.
Beef heart, infusion from: 250 gm.
Bacto Proteose-peptone, Difco: 10 gm.
Bacto-Dextrose, Difco: 1 gm.
Disodium phosphate: 2.5 gm.

Structure (SMILES): NC[C@H]1O[C@H](O[C@H]2[C@H](O)[C@@H](O)[C@H](N)C[C@@H]2N)[C@H](N)[C@@H](O)[C@@H]1O [Neamine]
- MIC (read-out: Minimal Inhibitory Concentration): > 500 µg/mL
- MIC (read-out: Minimum Inhibitory Concentration): 250 µg/mL (≈ 776 µM)
